Measured values reported in patent US20230219946A1, “PYRIMIDIN-4(3H)-ONE HETEROCYCLIC COMPOUND, PREPARATION METHOD THEREOF, AND PHARMACEUTICAL USE THEREOF” (Beijing Innocare Pharma Tech Co., Ltd., priority 2020, published 2023).
Counter-ions that a name gives are not always drawn.

Key:
[1] = biological target: T1, Recombinant human SHP2 full-length protein (Homo sapiens, UniProt Q06124); assay: SHP2 activity inhibition measurement (fluorescence detection, surrogate substrate DiFMUP); type: biochemical; conditions: recombinant human SHP2 full-length protein activated with diphosphopeptide
T1 construct: Recombinant human SHP2 full-length protein
T1 sequence (Q06124 1-593): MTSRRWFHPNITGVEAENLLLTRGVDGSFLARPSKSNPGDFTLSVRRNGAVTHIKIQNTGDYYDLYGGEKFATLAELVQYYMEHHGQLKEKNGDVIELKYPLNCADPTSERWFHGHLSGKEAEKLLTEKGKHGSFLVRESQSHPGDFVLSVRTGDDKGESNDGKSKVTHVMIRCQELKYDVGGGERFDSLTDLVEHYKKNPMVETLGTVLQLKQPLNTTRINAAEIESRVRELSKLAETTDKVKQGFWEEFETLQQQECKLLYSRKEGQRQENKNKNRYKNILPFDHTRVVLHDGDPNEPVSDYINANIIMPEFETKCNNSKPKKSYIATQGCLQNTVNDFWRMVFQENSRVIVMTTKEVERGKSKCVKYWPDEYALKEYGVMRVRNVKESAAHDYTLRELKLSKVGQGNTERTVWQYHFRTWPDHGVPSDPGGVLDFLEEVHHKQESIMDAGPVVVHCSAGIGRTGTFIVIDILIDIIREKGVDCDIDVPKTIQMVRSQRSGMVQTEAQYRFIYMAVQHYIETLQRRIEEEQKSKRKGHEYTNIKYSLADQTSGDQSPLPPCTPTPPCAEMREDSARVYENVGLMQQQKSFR
Method: SHP2 activity inhibition measurement
The effect of the compound of the present invention on SHP2 activity is evaluated by rapid fluorescence detection method using the surrogate substrate DiFMUP.
(§1) The experimental method is outlined as follows:
Recombinant human SHP2 full-length protein was expressed and purified by the protein purification and identification platform of Tsinghua University; diphosphopeptide (H2N-LN(pY)IDLDLV-(dPEG8)LST(pY)ASINFQK-amide) was synthesized by Nanjing GenScript Biotechnology Co., Ltd.; surrogate substrate DiFMUP was purchased from Thermo Fisher Scientific (Cat. No. D6567); reaction buffer contained the following components: 60 mM HEPES (pH 7.2), 75 mM NaCl, 75 mM KCl, 1 mM EDTA, 0.05% TWEEN 20, and 5 mM DTT.
The compound was dissolved in DMSO (Sigma, Cat. No. D5879) and diluted to 100 μM. The resulting solution was serially diluted 4-fold with DMSO to a minimum concentration of 6.1 nM, and each concentration point was diluted 25-fold with the reaction buffer.
10 μL of compound solution and 10 μL of 0.25 nM SHP2 protein solution were added to a 384-well microplate (Corning, Cat. No. 3575), mixed well, and incubated at room temperature for 30 min. 10 μL of 0.5 μM diphosphopeptide (dissolved in the reaction buffer) was added, mixed well, and incubated at room temperature for 30 to 60 min. Subsequently, 10 μL of 60 μM DiFMUP solution (dissolved in the reaction buffer) was added, mixed well, and let stand at room temperature. After 30 min, fluorescence signals were measured at 340 nm (excitation wavelength)/450 nm (emission wavelength) using a microplate reader (EnSpire, Perkin Elmer). The fluorescence intensity value was positively correlated with the degree of dephosphorylation of the substrate, thereby reflecting the catalytic activity of SHP2. […] An inhibition curve of the compound was plotted by XLfit software and the inhibitory IC50 was calculated.

[2] = tested on: human non-small cell lung cancer cell line NCI-H358; assay: NCI-H358 cell proliferation inhibition (luminescent cell viability assay, CTG); type: cell-based; conditions: 120 h, NCI-H358 cells, 5 days, CellTiter-Glo
Method: Determination of NCI-H358 cell proliferation inhibition
The effect of the compound of the present invention on proliferation of human non-small cell lung cancer cell line NCI-H358 is evaluated by luminescent cell viability assay.
as §1
The compound was dissolved in DMSO (Sigma, Cat. No. D5879) and diluted to 5 mM. The resulting solution was serially diluted 4-fold with DMSO to a minimum concentration of […], and each concentration point was diluted 50-fold with RPMI 1640 Medium (Thermo Fisher Scientific, Cat. No. 11995073). When the IC50 value of the compound was low, the initial concentration of the compound was further reduced.
NCI-H358 cells (ATCC, Cat. No. CRL-5807) were cultured in RPMI 1640 Complete Medium [RPMI 1640 Medium was supplemented with 10% FBS (GBICO, Cat. No. 10099-141) and 100 units/mL Penicillin-Streptomycin (Thermo Fisher Scientific, Cat. No. 15140122)]. The cells (15,000 cells/mL) were seeded in 90 μL of Complete Medium on a 96-well plate. After culturing overnight, 10 μL of compound solution was added to each well and cultured at 37° C. in a 5% CO2 incubator for 5 days. According to the instruction from the CellTilter-Glo (CTG) kit (Promega, Cat. No. G7572), the cell culture plate was removed from incubator and equilibrated to room temperature. The cells were lysed fully with 50 μL of CTG reagent and placed at room temperature for 10 min. A luminescence signal was read by the microplate reader (EnVision, Perkin Elmer). […] An inhibition curve of the compound was plotted by XLfit software and the inhibitory IC50 was calculated.

| IC50 [1] | IC50 [2] | Structure (SMILES) |
| --- | --- | --- |
| 56 nM |  | Cn1cc2c(Cl)c(Sc3cnc(N4CCC(C)(CN)CC4)n(C)c3=O)ccc2n1 [Compound 16, 2-(4-(Aminomethyl)-4-methylpiperidin-1-yl)-5-((4-chloro-2-methyl-2H-indazole-5-yl)thio)-3-methylpyrimidin-4(3H)-one formate] |
| 11 nM | 222 nM | [2H]C([2H])([2H])n1c(N2CCC3(CC2)CO[C@@H](C)[C@H]3N)ncc(Sc2ccc3nn(C)cc3c2Cl)c1=O [Compound 19, 2-((3S,4S)-4-amino-3-methyl-2-oxa-8-azaspiro[4.5]decan-8-yl)-5-((4-chloro-2-methyl-2H-indazole-5-yl)thio)-3-(methyl-d3)pyrimidin-4(3H)-one] |
| 8.7 nM |  | Cn1c(N2CCC3(CCC[C@H]3N)CC2)nc(N)c(Sc2cccc3[nH]ncc23)c1=O [Compound 13, (R)-5-((1H-indazole-4-yl)thio)-6-amino-2-(1-amino-8-azaspiro[4.5]decan-8-yl)-3-m ethylpyrimidin-4(3H)-one formate] |
| 5.5 nM | 335 nM | C[C@@H]1OCC2(CCN(c3ncc(Sc4ccnc5[nH]ccc45)c(=O)n3C)CC2)[C@@H]1N [Compound 18, 5-((1H-pyrrolo[2,3-b]pyridin-4-yl)thio)-2-((3S,4S)-4-amino-3-methyl-2-oxa-8-azaspiro[4.5]decan-8-yl)-3-methylpyrimidin-4(3H)-one formate] |
| 36 nM | 1760 nM | Cn1cc2c(Cl)c(Sc3cnc(N4CCC5(CC4)COC[C@H]5N)n(C)c3=O)ccc2n1 [Compound 10, (S)-2-(4-amino-2-oxa-8-azaspiro[4.5]decan-8-yl)-5-((4-chloro-2-methyl-2H-indazole-5-yl)thio)-3-methylpyrimidin-4(3H)-one] |
| 20 nM | 434 nM | Cn1c(N2CCC3(CCC[C@H]3N)CC2)ncc(Sc2cccc3[nH]ncc23)c1=O [Compound 3, (R)-5-((1H-indazole-4-yl)thio)-2-(1-amino-8-azaspiro[4.5]decan-8-yl)-3-methylpyrimidin-4(3H)-one hydrochloride] |
| 801 nM |  | Cn1c(N2CCC3(CCC[C@H]3N)CC2)ncc(Sc2ccn3nccc3c2)c1=O [Compound 5, (R)-2-(1-amino-8-azaspiro[4.5]decan-8-yl)-3-methyl-5-(pyrazolo[1,5-a]pyridin-5-ylthio)pyrimidin-4(3H)-one hydrochloride] |
| 877 nM |  | Cn1c(N2CCC3(CCC[C@H]3N)CC2)ncc(Sc2ccc3[nH]ncc3c2)c1=O [Compound 6, (R)-5-((1H-indazole-5-yl)thio)-2-(1-amino-8-azaspiro[4.5]decan-8-yl)-3-methylpyrimidin-4(3H)-one hydrochloride] |

The next lines start with the compound.

| Structure (SMILES) | IC50 [1] | IC50 [2] |
| --- | --- | --- |
| C[C@@H]1OCC2(CCN(c3nc(N)c(Sc4ccc5nn(C)cc5c4Cl)c(=O)n3C)CC2)[C@@H]1N [Compound 14, 6-Amino-2-((3S,4S)-4-amino-3-methyl-2-oxa-8-azaspiro[4.5]decan-8-yl)-5-((4-chloro-2-methyl-2H-indazole-5-yl)thio)-3-methylpyrimidin-4(3H)-one formate] | 2.5 nM | 108 nM |
| C[C@@H]1OCC2(CCN(c3ncc(Sc4ccn5nccc5c4Cl)c(=O)n3C)CC2)[C@@H]1N [Compound 12, 2-((3S,4S)-4-amino-3-methyl-2-oxa-8-azaspiro[4.5]decan-8-yl)-5-((4-chloropyrazolo[1,5-a]pyridin-5-yl)thio)-3-methylpyrimidin-4(3H)-one formate] | 3.1 nM | 264 nM |
| Cn1c(N2CCC3(CCC[C@H]3N)CC2)ncc(Sc2ccnc3[nH]ccc23)c1=O [Compound 1, (R)-5-((1H-pyrrolo[2,3-b]pyridin-4-yl)thio)-2-(1-amino-8-azaspiro[4.5]decan-8-yl)-3-methylpyrimidin-4(3H)-one hydrochloride] | 23 nM | 310 nM |
| C[C@@H]1OCC2(CCN(c3nc(N)c(Sc4ccn5nccc5c4Cl)c(=O)n3C)CC2)[C@@H]1N [Compound 15, 6-Amino-2-((3S,4S)-4-amino-3-methyl-2-oxa-8-azaspiro[4.5]decan-8-yl)-5-((4-chloropyrazolo[1,5-a]pyridine-5-yl)thio)-3-methylpyrimidin-4(3H)-one formate] | 2.7 nM | 342 nM |
| Cn1c(N2CCC3(CCC[C@H]3N)CC2)ncc(Sc2ccnc3c2ccn3C)c1=O [Compound 2, (R)-2-(1-amino-8-azaspiro[4.5]decan-8-yl)-3-methyl-5-((1-methyl-1H-pyrrolo[2,3-b]pyridin-4-yl)thio)pyrimidin-4(3H)-one formate] | 20 nM | 383 nM |
| Cn1nc2ccc(Sc3cnc(N4CCC5(CCC[C@H]5N)CC4)n(C)c3=O)c(Cl)c2c1C#N [Compound 9, (R)-5-((2-(1-amino-8-azaspiro[4.5]decan-8-yl)-1-methyl-6-oxo-1,6-dihydropyrimidin-5-yl)thio)-4-chloro-2-methyl-2H-indazole-3-carbonitrile formate] | 8.8 nM | 1340 nM |
| C[C@@H]1OCC2(CCN(c3ncc(Sc4ccc5nn(C)cc5c4Cl)c(=O)n3C)CC2)[C@@H]1N [Compound 11, 2-((3S,4S)-4-amino-3-methyl-2-oxa-8-azaspiro[4.5]decan-8-yl)-5-((4-chloro-2-methyl-2H-indazole-5-yl)thio)-3-methylpyrimidin-4(3H)-one formate] | 4 nM | 165 nM |
| C[C@@H]1OCC2(CCN(c3ncc(Sc4ccnc5c4ccn5C)c(=O)n3C)CC2)[C@@H]1N [Compound 17, 2-((3S,4S)-4-amino-3-methyl-2-oxa-8-azaspiro[4.5]decan-8-yl)-3-methyl-5-((1-methyl-1H-pyrrolo[2,3-b]pyridin-4-yl)thio)pyrimidin-4(3H)-one formate] | 14 nM | 540 nM |
| Cn1c(N2CCC3(CCC[C@H]3N)CC2)ncc(Sc2ccn3nccc3c2Cl)c1=O [Compound 8, (R)-2-(1-amino-8-azaspiro[4.5]decan-8-yl)-5-((4-chloropyrazolo[1,5-a]pyridin-5-yl)thio)-3-methylpyrimidin-4(3H)-one formate] | 8.6 nM | 309 nM |
| Cn1c(N2CCC3(CCC[C@H]3N)CC2)ncc(Sc2cccn3nccc23)c1=O [Compound 4, (R)-2-(1-amino-8-azaspiro[4.5]decan-8-yl)-3-methyl-5-(pyrazolo[1,5-a]pyridin-4-ylthio)pyrimidin-4(3H)-one formate] | 126 nM | 2360 nM |
